The text below walks through data of patent US20060270643A1, “Hyfroxyflutamide induced pathways related to androgen receptor negative prostate cancer cells” (priority 2002, published 2006).

Assay [1] has as its system association between Ras and Raf. Put plainly: Ras-Raf immunoprecipitation assay in DU145 cells. In kind it is cell-based, human. The conditions noted are these: lysates of treated DU145 cells; 1 μM HF, 10 ng/ml EGF, 1 μM 9-cis retinoic acid. Here is the method: 8. […] (A) DU145 cells were treated with ethanol (lane 1), 10 ng/ml EGF (lane 2), 1 μM 9-cis retinoic acid (lane 3), and 1 μM HF (lane 4) after 24 hour serum starvation. Cells were lysed and 300 μg of total protein were immunoprecipitated with anti-Ras antibody, pulled-down by a protein A/G agarose beads, and detected with an anti-Raf antibody. (B) DU145 cells were transfected with pCDNA3.1 or pCDNA3.1-Ras N17 as indicated. After 24 hours serum starvation, the cells were treated with different ligands for 20 min, and then harvested. Western blots were performed with antibodies against phosphoERK1/2 and ERK1/2. The density of phospho-ERK1/2 shown as Optical Density (OD) were determined by the Versa Doc Imaging System (Bio-Rad) and quantified by Quantity One software.
200. Serum-stared and treated DU145 cells were lysed with RIPA buffer for 30 min on ice. Lysates were then centrifuiged at 12,000 g for 10 min at 4° C. and protein concentrations were determined by the Bradford assay. 500 μg of cell lysates were incubated for 4 hours with either anti-Ras or anti-EGFR antibody (1/100, Santa Cruz Biotechnology) to the protein-antibody mixture and then added in 20 μl of protein A/G plus-agarose (Santa Cruz Biotechnology) for another 4 hours incubation with constant rotation. The immunoprecipitates were washed four times with cold PBS, resolved by SDS-PAGE, and immunoblotted by anti-Raf-1 antibody, or anti-phospho-tyrosine monoclonal antibody (Oncogene Research, Calbiochem, La Jolla, Calif.). The results were visualized by chemiluminescence.

Assay [2] relates to cyclin D1 promoter (−1745D1-Luc). Briefly: Cyclin D1 promoter luciferase reporter assay in DU145 cells. The conditions noted are these: 10^−6 M HF or 30 ng/ml EGF. In kind it is cell-based, human. Here is the method:
11. […] (A) DU145 cells were treated with HF (1 μM), or EGF (10 ng/ml), or ethanol vehicle for 12 hours after the serum starvation. Cells were lysed and blotted with anti-cyclin D1 antibody. (B) DU145 cells were serum starved for 24 hours and then co-transfected DN Ras or DN Raf together with […] Luc reporter with SuperFect (Qiagen). After 4 hours, the medium was changed to normal medium (10% serum) for 18 hours and then changed to serum starvation condition for another 24 hours and then treated with HF, EGF, or ethanol vehicle control. Cells were lysed for luciferase activity analysis.
197. DU145 cells were obtained from American Type Culture Collection and cultured in Dubecco's modified Eagles's medium (DMEM) supplemented with 10% fetal bovine serum (FBS). Cells (1×10^5) were seeded in 35 mm plates and transfected with the SuperFect transfection reagent (Qiagen, Chatworth, Calif.). After 4 hours the media were changed to serum-free DMEM media for 24 hours. Thereafter, the cells were treated with HF, EGF, and vehicle for 18 hours and then lysed for luciferase assay. Luciferase activity was normalized for taansfection efficiency using pRL-TK as an internal control. Luciferase assays were performed using dual-luciferase reporter system (Promega, Madison, Wis.).
A general note: In a reporter assay the amount or activity of a reporter protein is the signal.

The subject of assay [3] is MAP kinase in CWR22 cells. Briefly: Immunoblot of phospho-ERK1/2 in CWR22 cells. The class given is cell-based, human. The conditions noted are these: 15 mins. A general note: A western blot detects proteins with antibodies after separation by electrophoresis.
The target in assay [4] is T1, AR (Homo sapiens, UniProt P10275).
T1 sequence (P10275 1-920): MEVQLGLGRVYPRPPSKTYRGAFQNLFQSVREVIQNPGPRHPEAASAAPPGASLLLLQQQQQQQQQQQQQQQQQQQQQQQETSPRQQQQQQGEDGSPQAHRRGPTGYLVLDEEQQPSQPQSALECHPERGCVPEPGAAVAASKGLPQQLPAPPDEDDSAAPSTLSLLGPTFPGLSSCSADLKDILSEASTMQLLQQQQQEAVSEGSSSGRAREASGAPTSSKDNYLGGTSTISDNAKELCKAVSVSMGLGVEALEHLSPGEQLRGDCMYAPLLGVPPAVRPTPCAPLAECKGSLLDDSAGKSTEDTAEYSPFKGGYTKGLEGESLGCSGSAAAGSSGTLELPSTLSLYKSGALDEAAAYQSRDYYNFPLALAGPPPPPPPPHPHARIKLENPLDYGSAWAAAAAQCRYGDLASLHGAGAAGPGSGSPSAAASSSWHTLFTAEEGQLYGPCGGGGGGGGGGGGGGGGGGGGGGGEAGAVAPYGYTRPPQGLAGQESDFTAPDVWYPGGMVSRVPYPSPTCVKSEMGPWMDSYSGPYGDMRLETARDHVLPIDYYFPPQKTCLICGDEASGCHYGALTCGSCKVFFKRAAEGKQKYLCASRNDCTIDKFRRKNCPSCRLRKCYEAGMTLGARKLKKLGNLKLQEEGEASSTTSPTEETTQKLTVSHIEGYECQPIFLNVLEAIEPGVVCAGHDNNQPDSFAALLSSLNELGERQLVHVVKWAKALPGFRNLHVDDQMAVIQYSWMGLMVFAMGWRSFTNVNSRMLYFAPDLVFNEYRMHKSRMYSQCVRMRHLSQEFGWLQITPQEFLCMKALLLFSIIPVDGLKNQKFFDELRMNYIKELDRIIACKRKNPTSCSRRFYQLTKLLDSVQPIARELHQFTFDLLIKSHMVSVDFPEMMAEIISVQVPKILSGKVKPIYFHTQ
Briefly: AR/DHT mediated PSA transcriptional activity (luciferase reporter) in DU145 cells. In kind it is cell-based. The conditions noted are these: 1 μM of HF, 1 nM DHT, DU145 cells cotransfected with AR.

Each structure is given as a SMILES string.

Consider `CC(C)(O)C(=O)Nc1ccc([N+](=O)[O-])c(C(F)(F)F)c1` [HF, hydroxyflutamide], for which, in assay [1], the “Raf detected in the Ras immunocomplex” value is reported as “detected”. The “induction of cyclin D1 promoter (−1745D1-Luc) activity” value in assay [2] was “about 2 fold”. Also, the MAP kinase activation entry in assay [3] was “activates MAP kinase”. Moreover, in assay [4], the “DHT induced PSA-Luc activity” value is reported as “represses DHT induced PSA-Luc activity”.
